{"source": "patent US20210205329A1", "about": "(The University of North Carolina at Chapel Hill, priority 2018, published 2021)", "key": {"HMGB1 binding to TLR4": {"target": "T1, HMGB1 binding to TLR4 (Rattus norvegicus, UniProt Q9QX05)", "T1 construct": "from tissue; host or cells: ventral tegmental area (VTA) of alcohol-preferring (P) rats", "T1 sequence (Q9QX05 26-835)": "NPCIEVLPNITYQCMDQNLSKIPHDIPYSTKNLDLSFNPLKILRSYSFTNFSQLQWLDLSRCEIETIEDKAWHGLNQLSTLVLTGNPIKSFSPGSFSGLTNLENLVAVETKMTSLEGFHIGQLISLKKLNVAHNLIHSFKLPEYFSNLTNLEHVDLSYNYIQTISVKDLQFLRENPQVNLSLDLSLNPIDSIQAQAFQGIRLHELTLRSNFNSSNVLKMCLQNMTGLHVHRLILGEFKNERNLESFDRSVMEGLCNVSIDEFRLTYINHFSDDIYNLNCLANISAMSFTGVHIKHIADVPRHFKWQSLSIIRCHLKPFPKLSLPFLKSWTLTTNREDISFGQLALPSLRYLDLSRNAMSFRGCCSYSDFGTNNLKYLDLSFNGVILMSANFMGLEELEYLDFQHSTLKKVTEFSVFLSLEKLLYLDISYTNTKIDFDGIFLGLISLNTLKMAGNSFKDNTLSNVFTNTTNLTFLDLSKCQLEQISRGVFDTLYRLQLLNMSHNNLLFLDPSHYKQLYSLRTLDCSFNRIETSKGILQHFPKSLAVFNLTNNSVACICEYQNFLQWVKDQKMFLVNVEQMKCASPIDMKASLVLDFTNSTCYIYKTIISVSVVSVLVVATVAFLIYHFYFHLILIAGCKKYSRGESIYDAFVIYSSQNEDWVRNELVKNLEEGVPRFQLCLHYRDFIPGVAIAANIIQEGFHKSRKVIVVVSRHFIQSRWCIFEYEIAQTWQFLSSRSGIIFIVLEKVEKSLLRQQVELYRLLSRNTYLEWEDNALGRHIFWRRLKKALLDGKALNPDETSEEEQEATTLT", "test": "TLR4/HMGB1 co-immunoprecipitation in P rat VTA", "format": "in vivo", "conditions": "15 mg/kg IP, P rats", "description": "(§1) Co-Immunoprecipitation Assay RAW264.7 cells [treated with LPS (1 μg/ml), 3α,5α-THP (1 μM) or pregnenolone (1 μM)] were exposed to chemical protein crosslinking (Poulopoulos et al, 2009) at 24 hrs post-treatment. Briefly, the cells were incubated (20 min on ice) with 1 mM of the cleavable, membrane-permeable crosslinker DSP (Thermo Fisher Scientific, Cat. #PG82081). Rat VTA homogenates were incubated (20 min on ice) with 200 μM of DSP. The crosslinker was quenched in 1 M Tris buffer (pH 7.5) (to a final concentration of 10-20 mM), and the material was centrifuged at 21,000×g for 15 min. Proteins from the cells were extracted with Pierce IP Lysis Buffer (Thermo Fisher Scientific, Cat. #87787) supplemented with protease and phosphatase inhibitor cocktails (Sigma). Proteins from the VTA were extracted with CelLytic MT (dialyzable mild detergent, bicine and 150 mM NaCl; Sigma Aldrich, St. Louis, Mo., USA, Cat. #C3228) supplemented with protease and phosphatase inhibitor cocktails (Sigma) according to the manufacturers instructions. […]"}, "TLR7 signal": {"system": "TLR7 signal", "test": "Imiquimod-activated TLR7 signaling in RAW264.7 cells", "format": "cell-based, mouse", "conditions": "1 μM; imiquimod 1 μg/ml; 24 hours", "description": "Because multiple TLRs signal through MD-2, […] and MyD-88, the specificity of the neurosteroid 3α,5α-THP on TLR2, TLRS and TLR7 signal activation was examined in RAW264.7 ceils (FIG. 7). Pam3Cys (10 μg/ml) activated TLR2 signaling, evidenced by increases in pCREB, pERK1/2, TRAF6 and pATF-2, that were sustained for 24 hrs and inhibited by 3α,5α-THP (1 μM) (50-60% compared to vehicle)."}, "TLR4/GABAAR α2 binding": {"target": "T2, TLR4/GABAAR α2 binding (Rattus norvegicus, UniProt Q9QX05)", "T2 construct": "from tissue; host or cells: ventral tegmental area (VTA) of alcohol-preferring (P) rats", "T2 sequence (Q9QX05 26-835)": "T1 sequence (Q9QX05 26-835)", "test": "TLR4/GABAAR α2 co-immunoprecipitation in P rat VTA", "format": "in vivo", "conditions": "15 mg/kg IP, P rats", "description": "as §1"}, "TLR4/MyD88 binding": {"target": "T3, TLR4/MyD88 binding (Rattus norvegicus, UniProt Q9QX05)", "T3 construct": "from tissue; host or cells: ventral tegmental area (VTA) of alcohol-preferring (P) rats", "T3 sequence (Q9QX05 26-835)": "T1 sequence (Q9QX05 26-835)", "test": "TLR4/MyD88 co-immunoprecipitation in P rat VTA", "format": "in vivo", "conditions": "15 mg/kg IP, P rats", "description": "as §1"}}, "note": "Values joined by “and” are separate entries in the source; they are usually repeats but may differ in a detail not shown here. Identical values can stand only once.", "data": [{"smiles": "CC(=O)[C@H]1CC[C@H]2[C@@H]3CC[C@H]4C[C@H](O)CC[C@]4(C)[C@H]3CC[C@]12C", "note": "[3α,5α-THP, (3α,5α)3-hydroxypregnan-20-one]", "values": [{"measurement": "HMGB1 binding to TLR4 in VTA", "setting": "HMGB1 binding to TLR4", "result": "not altered"}, {"measurement": "effect of imiquimod on pIRF7", "setting": "TLR7 signal", "result": "completely inhibited"}, {"measurement": "inhibition of TLR4/GABAAR α2 binding (α2 co-precipitating with TLR4) in VTA", "setting": "TLR4/GABAAR α2 binding", "result": "62.7±9.2% and 82.7±9.2% and ~80%"}, {"measurement": "inhibition of TLR4/MyD88 binding in VTA", "setting": "TLR4/MyD88 binding", "result": "43.5±5.4% and ~40%"}]}]}
